Measured values taken from US20090179638A1, “ASSAY FOR IDENTIFYING INHIBITORS OF NEURONAL APOPTOTIC PATHWAYS” (AEGERA THERAPEUTICS INC., priority 2006, published 2009).

Legend:
HSP90 protein = experiment: STD 1H NMR spectroscopy binding to HSP90; conditions: compound to protein ratio approximately 100:1, 20 mM sodium phosphate buffer pH 6.7
Description: (§1) FIG. 9 is a STD 1H NMR Spectrum of Compound 1 and 20 with HSP90 protein. STD NMR experiments were performed at 19° C. on a Varian INNOVA 500 MHz spectrometer equipped with a triple resonance HCN cold probe. A 1D saturation transfer difference pulse sequence with internal subtraction via phase cycling was employed. Residual HDO signal was removed using a W5 WATERGATE pulse sequence, with a […] interpulse delay. On resonance irradiation of the protein was performed at −0.5 ppm, with off-resonance irradiation at 34 ppm. The irradiation power was (g/2p)B1=93 Hz applied through a train of 50 ms eburp1 pulses with a 1 ms delay between the pulses. The total presaturation time was 5.1 s. The relaxation delay was set to 0.1 s. A 30 ms spin-lock pulse with a strength of (g/2p)B1=4600 Hz was used to eliminate background protein signals. The total number of scans was between 1536, with a sweep width of 16 ppm. Spectra were multiplied by a 1 Hz exponential line-broadening function prior to Fourier transform. Compounds 1 (85 uM) and 20 (85 uM) and HSP90 protein (0.85 uM) in 20 mM sodium phosphate buffer (pH 6.7) was used. A) STD 1H NMR spectrum, B) preset reference, and C) STD reference-no saturation/difference.
as §1, with “STD” for “FIG. 9 is a STD 1H NMR Spectrum of Compound 1 and 20 with HSP90 protein. STD”, “employed (Mayer and Meyer, JACS, 2001, 123, 6108-6117).” for “employed.”, “delay (Liu et. al, J. Magn. Res., 1998, 132, 125).” for “delay.”, “1536-2048,” for “1536,”, “transform.” for “transform. Compounds 1 (85 uM) and 20 (85 uM) and HSP90 protein (0.85 uM) in 20 mM sodium phosphate buffer (pH 6.7) was used. A) STD 1H NMR spectrum, B) preset reference, and C) STD reference-no saturation/difference.”
The compound to protein ratio was fixed at approximately 100:1 in 20 mM sodium phosphate buffer (pH 6.7). Compound 20 was used as a reference compound to compare binding affinities of various compounds to HSP90 by comparing the relative intensity of NOE effects in the spectra of compounds 1 and 20 (see FIG. 9), compounds 2 and 20, compounds 5 and 20, compounds 13 and 20, and compounds 15 and 20 (near equamolar quantities of each) in the presence of HSP90 protein. Using the NOE signals for the imidazole proton, and comparing peak heights, the relative kd of the compound pairs were compared (see Meyer and Peters, T. Angew. Chem. Int. Ed. 2003, 42, 864). The kds of the compound pairs ranged from 1:1 to 8:1. These differences in binding affinities correlated to the potency of each respective compound's ability to rescue SCG neurons from NGF withdrawal as previously reported.

PC12 cells = experiment: PC12 cell death induced by chemotherapeutic drugs (LDH assay); format: cell-based
Description: FIG. 3 is a graph showing that compound 1 inhibits JNK-dependent cell death induced by chemotherapeutic drugs. Cells were infected with AdNRG at 5 MOI or treated with paclitaxel, cisplatin, or doxorubicin (Dox) at the indicated μM concentrations. At the time of treatment, compound 1 or vehicle was added to the cultures, as indicated. After 40 hours, cells were assayed for death using the LDH assay. Results are normalized relative to those obtained with 1% Triton (Tx), and represent the mean±standard deviation of a representative experiment performed in triplicate (*=P<0.01 relative to 0 μM compound 1 for each insult). Experiments were performed twice with identical results.
The ability of compound 1 to inhibit apoptosis in response to a variety of other insults, including the DNA damaging agent, cisplatin, the microtubule disruptor, paclitaxel, and doxorubicin, a topoisomerase inhibitor was investigated. […] Cisplatin-induced apoptosis has been reported to be JNK-dependent when used at low concentrations (10 μM), but JNK-independent at concentrations >25 μM (Sanchez-Perez and Perona, 1999) and consistent with this, compound 1 protected cells exposed to 10 μM, but not 50 μM, cisplatin (FIG. 3).
Cell culture, infection, transfection and immunoblotting. Sympathetic neurons were maintained and deprived of NGF as previously described (Bamji et al., 1998; Ma et al., 1992). PC12^rtTA cells were maintained and infected as previously described (Majdan et al., 1997; Salehi et al., 2002); for NRAGE, […] doxycycline was added to all plates at time of infection. Wildtype and HSF1 nullizygous immortalized mouse embryonic fibroblasts (MEFs) were maintained in DMEM containing 10% fetal calf serum, 1 μM β-mercaptoethanol, 1% non-essential amino acids, 1% L-glutamine, 1% antimycotic solution and 1% sodium pyruvate (all from GibcoBRL). Sympathetic neuron survival was assessed using the MTS assay according to the manufacturer's instructions (Promega). Analysis of PC12 cell death was determined using a lactate dehydrogenase (LDH) assay (Roche) as per the manufacturer's instructions. Transfections using plasmids or RNAi were performed using Lipofectamine 2000. Immunoblotting was performed as previously described (Majdan et al., 1997; Salehi et al., 2002).

JNK = JNK activity in vitro; format: biochemical; conditions: data not shown

## NS(=O)(=O)c1nn2cc(-c3ccc(N4CCOCC4)cc3)nc2s1 [Compound 2]
HSP90 protein
  binding to HSP90 protein by STD 1H NMR: directly bind

## NS(=O)(=O)c1nn2cc(-c3ccccc3)nc2s1 [Compound 1]
HSP90 protein
  binding to HSP90 protein by STD 1H NMR: directly bind
PC12 cells; cisplatin 10 μM
  protection against cisplatin-induced cell death: protected
PC12 cells; cisplatin 50 μM
  protection against cisplatin-induced cell death: not 50 μM
PC12 cells; doxorubicin
  protection against doxorubicin-induced cell death: did not offer any protection
PC12 cells; paclitaxel 10 μM and 50 μM
  apoptosis induced by paclitaxel: effectively reduced
JNK
  effect on JNK activity in vitro: no effect
